Measurements published in patent US20250213701A1, “MEDICAMENT FOR TREATING HUMAN TUMOR BASED ON ERF3A-TARGETING PROTEOLYSIS MECHANISM” (SUZHOU DEGEN BIO-MEDICAL CO., LTD., priority 2022, published 2025).

Columns and labels:
Type in all cases: cell-based
Details in all cases: Homo sapiens, 72 h, 3 days, read-out: Inhibition rate
[1] = system: DU 145 cells; assay: Anti-proliferative toxicity of C63 in tumor cell lines (CCK8): DU 145
Method: (§1) Example 83: Detection of Anti-Proliferative Toxicity of C63 in Some Tumor Cell Lines
DU 145 cells (purchased from the Cell Bank of the Chinese Academy of Sciences, Cat. No. SCSP-5024) were subcultured in a culture medium (MVEM medium+[…] penicillin-streptomycin dual-antibiotic solution+10% fetal bovine serum) in an incubator at 5% carbon dioxide and 37° C.
DU 145 cells were seeded at 5000 cells/well (90 μL) on a 96-well plate and cultured for 24 h.
(§2) 10 mM compound stock solutions were prepared in DMSO.
(§3) The compound stock solution was diluted with DMSO to give DMSO solutions 1-9 at concentrations of 0 μM, 2500 μM, 500 μM, 100 μM, 20 μM, 4 μM, 0.8 μM, 0.16 μM, and 0.032 μM.
(§4) 2 μL of each of solutions 1-9 was added to 98 μL of the medium to give mixed solutions 11-19 of the compound and the medium.
(§5) 10 μL of each of solutions 11-19 was added to the above cell seed solution to give a total volume of 100 μL (90 μL+10 μL).
(§6) The concentrations of the compound in the wells were 0 μM, 5.0 μM, 1.0 μM, 0.2 μM, 0.04 μM, 0.008 μM, 0.0016 μM, 0.00032 μM, and 0.000064 μM. All concentrations were in triplicate.
(§7) After the above-treated cells were cultured for 3 days, 10 μL of the CCK8 solution (DOJINDO, Cat. No. PF725) was added to each well. The plate was incubated in an incubator at 37° C. for 1-4 h and then detected on a microplate reader for the reading at 450 nm.

[2] = system: OVCAR-3 cells; assay: Anti-proliferative toxicity of C63 in tumor cell lines (CCK8): OVCAR-3
Method: as §1
(§8) OVCAR-3 cells (purchased from the Cell Bank of the Chinese Academy of Sciences, Cat. No. TCHu228) were subcultured in a culture medium (RPMI-1640 medium+1% penicillin-streptomycin dual-antibiotic solution++20% fetal bovine serum+0.01 mg/mL recombinant human insulin) in an incubator at 5% carbon dioxide and 37° C.
OVCAR-3 cells were seeded at 2000 cells/well (90 μL) on a 96-well plate and cultured for 24 h.
as §2, §3, §4, §5, §6, §7

[3] = system: PANC-1 cells; assay: Anti-proliferative toxicity of C63 in tumor cell lines (CCK8): PANC-1
Method: as §1
PANC-1 cells (purchased from the Cell Bank of the Chinese Academy of Sciences, Cat. No. SCSP-535) were subcultured in a culture medium (DMEM medium+1% penicillin-streptomycin dual-antibiotic solution+10% fetal bovine serum) in an incubator at 5% carbon dioxide and 37° C.
PANC-1 cells were seeded at 5000 cells/well (90 μL) on a 96-well plate and cultured for 24 h.
as §2, §3, §4, §5, §6, §7

[4] = system: BT-549 cells; assay: Anti-proliferative toxicity of C63 in tumor cell lines (CCK8): BT-549
Method: as §1
as §8, with “BT-549” for “OVCAR-3”, “TCHu93)” for “TCHu228)”, “solution++10%” for “solution++20%”
BT-549 cells were seeded at 5000 cells/well (90 μL) on a 96-well plate and cultured for 24 h.
as §2, §3, §4, §5, §6, §7

[5] = system: DLD-1 cells; assay: Anti-proliferative toxicity of C63 in tumor cell lines (CCK8): DLD-1
Method: as §1
DLD-1 cells (purchased from the Cell Bank of the Chinese Academy of Sciences, Cat. No. TCHu134) were subcultured in a culture medium (RPMI-1640 medium+1% penicillin-streptomycin dual-antibiotic solution+10% fetal bovine serum) in an incubator at 5% carbon dioxide and 37° C.
DLD-1 cells were seeded at 2000 cells/well (90 μL) on a 96-well plate and cultured for 24 h.
as §2, §3, §4, §5, §6, §7

SMILES: C[C@]12C=CC(=O)N[C@@H]1CC[C@@H]1[C@@H]2CC[C@]2(C)[C@@H](C(=O)Nc3cccc(N[C@@H]4CCC[C@@H](Nc5cccc6c5C(=O)N([C@H]5CCC(=O)NC5=O)C6=O)C4)c3)CC[C@@H]12 [C63, N-(3-(N—(N-(4-(2-(3S-(2,6-dioxopiperidine))-isoindole-1,3-dione))-1R,3R-cyclohexanediamine))phenyl)-3-oxo-4-aza-5α-androst-1-ene-17β-carboxamide]
- inhibition at 64 pM ([1]; 0.000064 μM): 22.1%
- inhibition at 0.00032 µM ([1]; 0.000320 μM): 20.5%
- inhibition at 0.0016 µM ([1]; 0.001600 μM): 22.7%
- inhibition at 0.008 µM ([1]; 0.008000 μM): 48.4%
- inhibition at 0.04 µM ([1]; 0.040000 μM): 60.9%
- inhibition at 0.2 µM ([1]; 0.200000 μM): 74.3%
- inhibition at 1 µM ([1]; 1.000000 μM): 81.9%
- inhibition at 5 µM ([1]; 5.000000 μM): 82.4%
- inhibition at 64 pM ([2]; 0.000064 μM): 17.9%
- inhibition at 0.00032 µM ([2]; 0.000320 μM): 16.4%
- inhibition at 0.0016 µM ([2]; 0.001600 μM): 42.6%
- inhibition at 0.008 µM ([2]; 0.008000 μM): 61.4%
- inhibition at 0.04 µM ([2]; 0.040000 μM): 74.4%
- inhibition at 0.2 µM ([2]; 0.200000 μM): 80%
- inhibition at 1 µM ([2]; 1.000000 μM): 83.7%
- inhibition at 5 µM ([2]; 5.000000 μM): 85%
- inhibition at 64 pM ([3]; 0.000064 μM): 21.2%
- inhibition at 0.00032 µM ([3]; 0.000320 μM): 12.8%
- inhibition at 0.0016 µM ([3]; 0.001600 μM): 25.3%
- inhibition at 0.008 µM ([3]; 0.008000 μM): 31.6%
- inhibition at 0.04 µM ([3]; 0.040000 μM): 36.3%
- inhibition at 0.2 µM ([3]; 0.200000 μM): 42.1%
- inhibition at 1 µM ([3]; 1.000000 μM): 48.7%
- inhibition at 5 µM ([3]; 5.000000 μM): 52.8%
- inhibition at 64 pM ([4]; 0.000064 μM): 29.3%
- inhibition at 0.00032 µM ([4]; 0.000320 μM): 28%
- inhibition at 0.0016 µM ([4]; 0.001600 μM): 77.5%
- inhibition at 0.008 µM ([4]; 0.008000 μM): 84.3%
- inhibition at 0.04 µM ([4]; 0.040000 μM): 84.6%
- inhibition at 0.2 µM ([4]; 0.200000 μM): 85.6%
- inhibition at 1 µM ([4]; 1.000000 μM): 84.3%
- inhibition at 5 µM ([4]; 5.000000 μM): 87.5%
- inhibition at 64 pM ([5]; 0.000064 μM): 0.83%
- inhibition at 0.00032 µM ([5]; 0.000320 μM): 7.21%
- inhibition at 0.0016 µM ([5]; 0.001600 μM): 40.5%
- inhibition at 0.008 µM ([5]; 0.008000 μM): 67.5%
- inhibition at 0.04 µM ([5]; 0.040000 μM): 76.3%
- inhibition at 0.2 µM ([5]; 0.200000 μM): 78.3%
- inhibition at 1 µM ([5]; 1.000000 μM): 79.7%
- inhibition at 5 µM ([5]; 5.000000 μM): 83.1%
